Read-outs that look alike come from different tables or passages of the source.
Experiments:
[1] = system: breast cancer cell line MCF-7; test: MCF-7 cell growth study (celltiter-glo luminescent viability assay); format: cell-based, human; conditions: MCF-7 cells, 6 days incubation, read-out: IC50 (nM), cell growth inhibition;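 further: viability read by luminescence after compound exposure, relative to DMSO vehicle-treated wells on the same plate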
Description: Compound activity was analyzed using celltiter-glo luminescent viability assay (Promega #G7572) in breast cancer cell line MCF-7. Cells grown in log phase are trypsinized and seeded into a 96-well cell culture plate at a density of 2×10^3 per well and incubated overnight at 37° C. with 5% CO2 in humidified culture chamber. The next day, compounds were prepared in 100% DMSO and were serially diluted and added into cells in the following final concentrations: 316, 100, 31.6, 10, 3.16, 1, 0.32, 0.1, 0.03, 0.01, 0.003 and 0.001 nM. As a control, same volume and concentration of DMSO vehicle control solution was added to the control wells in each plate. The cells were incubated with compounds at 37° C. culture chamber for 6 days. Promega's celltiter-glo kit was used to analyze the cell viability, according to manufacture's instruction. Briefly, fifty microliter of celltiter-glo reagent was added to each well, plate (covered with aluminum foil) was gently vibrated for 10 min to induce cell lysis at room temperature. Luminescence was measured using a SPECTRAmax i3 reader.

[2] = system: pooled human hepatocytes; test: Human hepatocyte clearance study; format: in vitro ADME; conditions: for Human In vitro Clint (μL/min/10^6 cells) / Human In vitro T1/2 / Human Scale-up Clint: human hepatocytes; for Human Hepatocyte Remaining Percentage @ 120 min (%): human hepatocytes 0.5x10^6 viable cells/mL; for Human Scale-up Clint: scaling factor 2544.3
Description: (§1) The in vitro hepatocyte clearance of compound described here was studied using pooled human hepatocytes purchased from BioreclamationlVT (Westbury, NY, Cat #X008001, Lot #TQJ). Assay was conducted according to manufacture's instruction. Briefly, mM tock solutions of test compound and positive control (Verapamil) were prepared in 100% DMSO. Thawing media (50 mL) used in the study consists of: 31 mL Williams E medium (GIBCO Cat #12551-032); 15 mL isotonic percoll (GE Healthcare Cat #17-0891-09); 500 uL 100×GlutaMax (GIBCO Cat #35050); 750 uL HEPES (GIBCO Cat #15630-080); 2.5 mL FBS (Corning Cat #35-076-CVR); 50 uL human insulin (GIBCO Cat #12585-014) and 5 uL dexamethasone (NICPBP). Incubation media is made of Williams E medium supplemented with 1×GlutaMax. Thawing medium and supplement incubation medium (serum-free) were placed in a 37° C. water bath for at least 15 minutes prior to use. Compound stock solutions were diluted to 100 μM by combining 198 μt of 50% acetonitrile/50% water and 2 μL of 10 mM stock solution. Verapamil was use as positive control in the assay. Vials of cryopreserved hepatocytes were removed from storage and thawed in a 37° C. water bath with gentle shaking. Contents of the vial were poured into the 50 mL thawing medium conical tube. Vials were centrifuged at 100 g for 10 minutes at room temperature. Thawing medium was aspirated and hepatocytes were re-suspended with serum-free incubation medium to yield ˜1.5×10^6 cells/mL. Hepatocyte viability and density were counted using a Trypan Blue exclusion, and then cells were diluted with serum-free incubation medium to a working cell density of 0.5×10^6 viable cells/mL. Then, a portion of the hepatocytes at 0.5×10^6 viable cells/mL was boiled for 5 min prior to adding to the plate as negative control to eliminate the enzymatic activity so that little or no substrate turnover should be observed. The boiled hepatocytes were used to prepare negative samples. Aliquots of 198 μL hepatocytes were dispensed into each well of a 96-well non-coated plate. The plate was placed in the incubator on an orbital shaker at 500 rpm for approximately 10 minutes. Aliquots of 2 μL of the 100 μM test compound or positive control were added into respective wells of the non-coated 96-well plate to start the reaction. This assay was performed in duplicate. The plate was incubated in the incubator on an orbital shaker at 500 rpm for the designed time points. Twenty-five microliter of contents were transferred and mixed with 6 volumes (150 μL) of cold acetonitrile with IS (200 nM imipramine, 200 nM labetalol and 200 nM diclofenac) to terminate the reaction at time points of 0, 15, 30, 60, 90 and 120 minutes. Samples were centrifuged at 3,220 g for 25 minutes and aliquots of 150 μL of the supernatants was used for LC-MS/MS analysis. For data analysis, all calculations were carried out using Microsoft Excel. Peak areas were determined from extracted ion chromatograms. The in vitro half-life (t1/2) of parent compound was determined by regression analysis of the percent parent disappearance vs. time curve. The in vitro half-life (in vitro t1/2) was determined from the slope value: in vitro t1/2=0.693/k. […] Scaling factors for in vivo intrinsic clearance prediction using human hepatocytes are listed as: liver weight (g liver/kg body weight): 25.7; hepatocyte concentration (10^6 cells/g liver): 99; scaling factor: 2544.3.

[3] = target: ER (Homo sapiens (Human), UniProt P03372); test: MCF-7 ER degradation assay (high content imaging); format: cell-based; conditions: MCF-7 cells, 1 nM compound, DMSO control as baseline; for MCF7 ER Degradation at 4 hr (%): 4 hours treatment; for MCF7 ER Degradation at 24 hr (%): 24 hours treatment
Chain of ER (P03372 whole entry): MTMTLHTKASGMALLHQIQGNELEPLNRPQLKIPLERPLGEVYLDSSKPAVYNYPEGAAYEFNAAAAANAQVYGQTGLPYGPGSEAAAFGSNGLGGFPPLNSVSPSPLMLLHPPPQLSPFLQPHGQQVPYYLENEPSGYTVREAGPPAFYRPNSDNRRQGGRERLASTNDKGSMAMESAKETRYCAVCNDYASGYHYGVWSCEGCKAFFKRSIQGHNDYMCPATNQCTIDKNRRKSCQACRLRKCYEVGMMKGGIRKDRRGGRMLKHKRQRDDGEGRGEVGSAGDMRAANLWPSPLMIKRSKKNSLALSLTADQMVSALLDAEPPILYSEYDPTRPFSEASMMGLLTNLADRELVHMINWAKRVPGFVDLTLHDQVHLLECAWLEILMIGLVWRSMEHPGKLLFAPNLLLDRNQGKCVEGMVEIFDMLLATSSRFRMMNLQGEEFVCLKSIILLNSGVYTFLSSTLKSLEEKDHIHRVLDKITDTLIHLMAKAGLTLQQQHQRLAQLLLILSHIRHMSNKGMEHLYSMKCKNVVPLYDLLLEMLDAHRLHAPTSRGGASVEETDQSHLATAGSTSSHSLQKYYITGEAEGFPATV
Description: The level of ER degradation by SERD described in this patent was analyzed by cell based high content imaging method. […] Then, 1 μL of compound solution (in DMSO) was added to the cells to make a final concentration of 1 nM per each well of treated cells. DMSO at the same final concentration (%) per each well was used to serve as negative control on each plate. After 4 hours or 24 hours of treatment at 37° C. with 5% CO2, the cells were fixed and permeabilized. Media from each well was aspirated and cells were gently washed with 1×PBS for 5 minutes and the wash procedure was repeated 3 times. Cells was then fixed with 4% formaldehyde freshly made in 1×PBS at room temperature for 20 minutes, followed by gentle washing with 1×PBS, 3 times for 5 minute each. The assay plate was incubated with 200 μl of 1×PBS containing 0.2% Triton-X100 for 5 minutes at room temperature, cells were then washed again with 1×PBS 3 times for 5 minutes each. After this, cells were incubated with the blocking buffer (1×PBS with 5% BSA) at room temperature for 1 hour. For immunostaining, blocking buffer was removed and primary anti-ER antibody (ER1D5, Santa Cruz) diluted in blocking buffer (1:400) was added to each well and cells were incubated overnight at 4° C. The next day, cells were washed with 1×PBS for 3 times with 5 minute each. […] Cells were washed with 1×PBS for 3 times with 5 minute each time. Cells were incubated with DAPI (Beyotime; 1 μg/ml) for 10 minutes and washed with 1×PBS for 3 times with 5 minute each time. […] SERD induced ER degradation in the MCF-7 cells were measured using DMSO negative control as the baseline.

[4] = Human hepatocyte clearance study; format: in vitro ADME; conditions: pooled cryopreserved human hepatocytes (suspension); for hepatocyte CLint at 1 µM / half-life at 1 µM: human; for hepatocyte CLint at 1 µM: read-out: Human In vitro Clint (μL/min/10^6 cells); for half-life at 1 µM: read-out: Human In vitro T1/2; for CLint scaled at 1 µM: human hepatocytes, scaling factor 2544.3, read-out: Human Scale-up Clint
Description: as §1

Row | SMILES | IC50 [1] | IC50 ([1]; Homo sapiens, MCF7, 144 h) | further results
1 | CC1Cc2c([nH]c3ccc(O)cc23)C(c2c(F)cc(/C=C/C(=O)O)cc2F)N1CC(C)(C)F (stereo not shown) [Compound 23] | 4.2 nM | – | –
2 | C[C@@H]1Cc2c([nH]c3ccccc23)[C@@H](c2c(F)cc(OCCN3CCCCCC3)cc2F)N1CC(C)(F)F [Compound 4] | – | 0.9 nM | –
3 | C[C@@H]1Cc2c([nH]c3ccccc23)[C@@H](c2c(F)cc(OCCN3CCCC3)cc2F)N1CC(C)(F)F [Compound 2] | – | 0.9 nM | –
4 | CC1Cc2c(oc3ccccc23)C(c2c(Cl)cc(OCCN3CC(CF)C3)cc2Cl)N1CC(C)(C)F (stereo not shown) [Compound 18] | – | 8.9 nM | –
5 | CC1Cc2c([nH]c3ncccc23)C(c2c(F)cc(OCCN3CC(CF)C3)cc2F)N1CC(C)(F)F (stereo not shown) [Compound 19A] | – | 3.1 nM | –
6 | C[C@@H]1Cc2c([nH]c3ccccc23)[C@@H](c2c(F)cc(OCCN3CCCCC3)cc2F)N1CC(C)(F)F [Compound 3] | – | 0.6 nM | –
7 | COc1ccc2c3c([nH]c2c1)C(c1c(F)cc(OCCN2CC(CF)C2)cc1F)N(CC(C)(C)F)C(C)C3 (stereo not shown) [Compound 15A] | – | 1.8 nM | –
8 | C[C@@H]1Cc2c([nH]c3ccccc23)[C@@H](c2c(F)cc(/C=C/C(=O)O)cc2F)N1CC1(F)CC1 [Compound 24] | 1.9 nM | – | –
9 | C[C@@H]1Cc2c([nH]c3ccccc23)[C@@H](c2c(F)cc(OCCN3CC(CF)C3)cc2F)N1CC(C)(F)F [Compound 1] | 0.3 nM | – | Human In vitro Clint (μL/min/10^6 cells) [2]: 1.6 μL/min/10^6 cells; Human In vitro T1/2 [2]: 14.2 h; Human Hepatocyte Remaining Percentage @ 120 min (%) [2]: 88%; Human Scale-up Clint [2]: 4.1 mL/min/kg
10 | CC1Cc2c([nH]c3ccc(F)cc23)C(c2c(Cl)cc(/C=C/C(=O)O)cc2Cl)N1CC(C)(C)F (stereo not shown) [Compound 27B] | – | 0.7 nM | –
11 | C[C@@H]1Cc2c([nH]c3ccccc23)[C@@H](c2c(F)cc(/C=C/C(=O)O)cc2Cl)N1CC(C)(C)F [Compound 20] | 0.3 nM | – | Human In vitro Clint (μL/min/10^6 cells) [2]: 5.6 μL/min/10^6 cells; Human In vitro T1/2 [2]: 4.1 h; Human Hepatocyte Remaining Percentage @ 120 min (%) [2]: 70%; Human Scale-up Clint [2]: 14 mL/min/kg; MCF7 ER Degradation at 4 hr (%) [3]: 25%; MCF7 ER Degradation at 24 hr (%) [3]: 21%
12 | CC1Cc2c(oc3ccccc23)C(c2c(F)cc(OCCN3CC(CF)C3)cc2F)N1CC(C)(C)F (stereo not shown) [Compound 17A] | 0.8 nM | – | –
13 | C[C@@H]1Cc2c([nH]c3ccccc23)[C@@H](c2c(Cl)cc(OCCN3CC(CF)C3)cc2Cl)N1CC(C)(F)F [Compound 10] | – | 3.2 nM | –
14 | C[C@@H]1Cc2c([nH]c3ccccc23)[C@@H](c2c(F)cc(OCCN3CCCCCC3)cc2F)N1CC(C)(C)F [Compound 8] | – | 1 nM | –
15 | C[C@@H]1Cc2c([nH]c3ccccc23)[C@@H](c2c(F)cc(OCCN3CC(CF)C3)cc2Cl)N1CC(C)(C)F [Compound 11] | – | 0.4 nM | hepatocyte CLint at 1 µM [4]: 2 µL/min/1e6 cells; half-life at 1 µM [4]: 11.1 h; CLint scaled at 1 µM [4]: 5.3 mL/min/kg; Human Hepatocyte Remaining Percentage @ 120 min (%) [2]: 83%
16 | COc1ccc2c3c([nH]c2c1)C(c1c(F)cc(/C=C/C(=O)O)cc1F)N(CC(C)(C)F)C(C)C3 (stereo not shown) [Compound 22A] | 2.6 nM | – | –
17 | C[C@@H]1Cc2c([nH]c3ccccc23)[C@@H](c2c(Cl)cc(OCCN3CC(CF)C3)cc2Cl)N1CC(C)(C)F [Compound 9] | – | 3.1 nM | –
18 | CC(C)(F)CN1C(c2c(F)cc(OCCN3CC(CF)C3)cc2F)c2[nH]c3ccccc3c2CC1C(F)(F)F (stereo not shown) [Compound 16A] | 0.6 nM | – | –
19 | CC1Cc2c([nH]c3ccc(F)cc23)C(c2c(F)cc(OCCN3CC(CF)C3)cc2F)N1CC(C)(C)F (stereo not shown) [Compound 13A] | 0.5 nM | – | –
20 | CC1Cc2c([nH]c3ccc(F)cc23)C(c2c(Cl)cc(OCCN3CC(CF)C3)cc2Cl)N1CC(C)(C)F (stereo not shown) [Compound 14B] | – | 2.6 nM | –
21 | CC1Cc2c([nH]c3ccc(F)cc23)C(c2c(F)cc(/C=C/C(=O)O)cc2F)N1CC(C)(C)F (stereo not shown) [Compound 46A] | – | – | MCF7 ER Degradation at 4 hr (%) [3]: 25%; MCF7 ER Degradation at 24 hr (%) [3]: 20%
22 | CC1Cc2c([nH]c3cc(F)ccc23)C(c2c(F)cc(/C=C/C(=O)O)cc2F)N1CC(C)(C)F (stereo not shown) [Compound 34A] | – | – | MCF7 ER Degradation at 4 hr (%) [3]: 21%; MCF7 ER Degradation at 24 hr (%) [3]: 20%

Continued, in another order:

Row | IC50 [1] | IC50 ([1]; Homo sapiens, MCF7, 144 h) | SMILES | further results
23 | – | 16 nM | CC1Cc2c([nH]c3cc(O)ccc23)C(c2c(F)cc(/C=C/C(=O)O)cc2F)N1CC(C)(C)F (stereo not shown) [Compound 36] | –
24 | 1.9 nM | – | CC1Cc2c([nH]c3ccc(Cl)cc23)C(c2c(F)cc(/C=C/C(=O)O)cc2F)N1CC(C)(C)F (single isomer, unassigned) [Compound 42A] | –
25 | – | 4.7 nM | CC1Cc2c(sc3ccccc23)C(c2c(F)cc(/C=C/C(=O)O)cc2F)N1CC(C)(C)F (stereo not shown) [Compound 48A] | –
26 | – | 1 nM | C[C@@H]1Cc2c([nH]c3ccccc23)[C@@H](c2c(F)cc(/C=C/C(=O)O)cc2F)N1CC1(C)CC1 [Compound 30] | –
27 | – | 2.6 nM | CC(C)CN1C(C)Cc2c([nH]c3ccc(F)cc23)C1c1c(F)cc(/C=C/C(=O)O)cc1F (stereo not shown) [Compound 39A] | –
28 | – | 0.4 nM | CC(C)(F)CN1C(c2c(F)cc(/C=C/C(=O)O)cc2F)c2[nH]c3ccccc3c2CC1C(F)(F)F (stereo not shown) [Compound 31A] | –
29 | – | 2.5 nM | CC1Cc2c([nH]c3cc(F)ccc23)C(c2c(F)cc(/C=C/C(=O)O)cc2F)N1CC(C)(F)F (stereo not shown) [Compound 35A] | –
30 | > 100 nM | – | CCC1Cc2c([nH]c3ccccc23)C(c2c(F)cc(/C=C/C(=O)O)cc2F)N1CC(C)(C)F (single isomer, unassigned) [Compound 40B] | –
31 | – | 2.9 nM | COc1ccc2[nH]c3c(c2c1)CC(C)N(CC(C)(C)F)C3c1c(F)cc(/C=C/C(=O)O)cc1F (stereo not shown) [Compound 37A] | –
32 | – | 1.9 nM | CC1Cc2c([nH]c3ncccc23)C(c2c(F)cc(/C=C/C(=O)O)cc2F)N1CC(C)(C)F (stereo not shown) [Compound 32A] | –
33 | 0.9 nM | – | CCC1Cc2c([nH]c3ccccc23)C(c2c(F)cc(/C=C/C(=O)O)cc2F)N1CC(C)(C)F (single isomer, unassigned) [Compound 40A] | –
34 | – | 1.2 nM | CC1Cc2c([nH]c3ccc(F)cc23)C(c2c(F)cc(/C=C/C(=O)O)cc2F)N1CC(C)(F)F (stereo not shown) [Compound 33A] | –
35 | – | 0.5 nM | C[C@@H]1Cc2c([nH]c3ccccc23)[C@@H](c2c(F)cc(/C=C/C(=O)O)cc2Cl)N1CC(C)(F)F [Compound 49] | –
36 | – | 7.9 nM | CC1Cc2c(oc3ccccc23)C(c2c(F)cc(/C=C/C(=O)O)cc2F)N1CC(C)(F)F (stereo not shown) [Compound 44A] | –
37 | – | 8.9 nM | CC1Cc2c(oc3ccccc23)C(c2c(Cl)cc(/C=C/C(=O)O)cc2Cl)N1CC(C)(C)F (stereo not shown) [Compound 45] | –
38 | – | 0.8 nM | CC1Cc2c([nH]c3cc(Cl)ccc23)C(c2c(F)cc(/C=C/C(=O)O)cc2F)N1CC(C)(C)F (stereo not shown) [Compound 43B] | –
39 | – | 0.9 nM | C[C@@H]1Cc2c([nH]c3ccccc23)[C@@H](c2c(F)cc(/C=C/C(=O)O)cc2F)N1CC(C)(F)F [Compound 29] | hepatocyte CLint at 1 µM [4]: 2.4 µL/min/1e6 cells; half-life at 1 µM [4]: 9.52 h; CLint scaled at 1 µM [4]: 6.2 mL/min/kg; Human Hepatocyte Remaining Percentage @ 120 min (%) [2]: 83%
40 | 1.3 nM | – | CC1Cc2c([nH]c3ccc(F)cc23)C(c2c(Cl)cc(/C=C/C(=O)O)cc2Cl)N1CC(C)(F)F (stereo not shown) [Compound 28] | –
41 | > 100 nM | – | CC1Cc2c([nH]c3ccc(Cl)cc23)C(c2c(F)cc(/C=C/C(=O)O)cc2F)N1CC(C)(C)F (single isomer, unassigned) [Compound 42B] | –
